Several values for one entry are separate records, joined by “and”; a condition that tells them apart may be missing. Identical values can stand only once.
What was measured:
Alternaria alternate = test: in vitro-Test with fungal microorganisms, Method A (tables A1-A12); type: cell-based, Alternaria alternata; conditions: applied alone
Method: (§1) Example: In Vitro-Test with Fungal Microorganisms
(§2) Wells of 96-well microtiter plates are filled with 10 μl of a preparation of test compound or compound combination in methanol+emulsifier alkylaryl-polyglycol-ether. Thereafter, the solvent is evaporated in a hood. At the next step, 100 μl of liquid potato dextrose medium is given into each well, that has been amended with an appropriate concentration of spores or mycelium suspension of the test fungus.
(§3) With the aid of a photometer, the extinction in all wells is measured at the wavelength of 620 nm.
(§4) The microtiter plates are incubated at 20° C. and 85% relative humidity. The inhibition of growth is determined again photometrically 3-5 days after the application. Efficacy is calculated in relation to the untreated control, 0% efficacy means fungal growth as high as in untreated control while 100% efficacy means no fungal growth is measured.
(§5) The data in tables A1 to A12, B1 to B14, C1 to C10, D1 to D8, E1 to E8, F1 to F11, G1 to G4, H1 to H4 and I1 to I5 were collected according to Method A. The data in tables A13 to A22, B15 to B18, C11 to C20, E9 to E16, F12 to F15, G5 to G15, H5 to H8, I6 to I11 and J1 to J11 were collected according to Method B.

Diaporthe citri = test: in vitro-Test with fungal microorganisms, Method A (tables F1-F11); type: cell-based; conditions: for Efficacy: applied alone
Method: as §1, §2, §3, §4, §5

Cercospora beticola [1] = test: in vitro-Test with fungal microorganisms, Method A (tables C1-C10); type: cell-based
Method: as §1, §2, §3, §4, §5

Botrytis cinerea [2] = test: in vitro-Test with fungal microorganisms, Method A (tables B1-B14); type: cell-based
Method: as §1, §2, §3, §4, §5

[3] = tested on: Ustilago segetum var. avenae; test: in vitro-Test with fungal microorganisms, Method A (tables I1-I5); type: cell-based; conditions: alone
Method: as §1, §2, §3, §4, §5

Colletotrichum coccodes = test: in vitro-Test with fungal microorganisms, Method B (tables J1-J11); type: cell-based
Method: as §1
as §2, with “30” for “10”, “200” for “100”, “growth” for “potato dextrose”, “given,” for “given into each well,”
(§6) With the aid of a photometer, the extinction in all wells is measured at the wavelength of 600 nm.
(§7) The microtiter plates are incubated for 3 to 7 days at 20° C. and 85% relative humidity. After the incubation inhibition of growth is determined photometrically. Efficacy is calculated in relation to the untreated control, 0% efficacy means fungal growth as high as in untreated control while 100% efficacy means no fungal growth is measured.
as §5

[4] = tested on: Ustilago segetum var. avenae; test: in vitro-Test with fungal microorganisms, Method B (tables I6-I11); type: cell-based; conditions: 0.2 ppm
Method: as §1
as §2, with “30” for “10”, “200” for “100”, “growth” for “potato dextrose”, “given,” for “given into each well,”
as §6, §7, §5

Fusarium culmorum = test: in vitro-Test with fungal microorganisms, Method B (tables G5-G15); type: cell-based
Method: as §1
as §2, with “30” for “10”, “200” for “100”, “growth” for “potato dextrose”, “given,” for “given into each well,”
as §6, §7, §5

Cercospora beticola [5] = test: in vitro-Test with fungal microorganisms, Method B (tables C11-C20); type: cell-based
Method: as §1
as §2, with “30” for “10”, “200” for “100”, “growth” for “potato dextrose”, “given,” for “given into each well,”
as §6, §7, §5

Botrytis cinerea [6] = test: in vitro-Test with fungal microorganisms, Method B (tables B15-B18); type: cell-based; conditions: for Efficacy %: alone
Method: as §1
as §2, with “30” for “10”, “200” for “100”, “growth” for “potato dextrose”, “given,” for “given into each well,”
as §6, §7, §5

Cordana musae [7] = test: in vitro-Test with fungal microorganisms, Method B (tables E9-E16); type: cell-based; conditions: for Efficacy: single active; for Efficacy %: single substance
Method: as §1
as §2, with “30” for “10”, “200” for “100”, “growth” for “potato dextrose”, “given,” for “given into each well,”
as §6, §7, §5

Alternaria alternata = test: in vitro-Test with fungal microorganisms, Method B (tables A13-A22); type: cell-based; conditions: for Efficacy: single compound
Method: as §1
as §2, with “30” for “10”, “200” for “100”, “growth” for “potato dextrose”, “given,” for “given into each well,”
as §6, §7, §5

[8] = tested on: Colletotrichum lindemuthianum; test: in vitro-Test with fungal microorganisms, Method A (tables D1-D8); type: cell-based
Method: as §1, §2, §3, §4, §5

Cordana musae [9] = test: in vitro-Test with fungal microorganisms, Method A (tables E1-E8); type: cell-based; conditions: single substance
Method: as §1, §2, §3, §4, §5

Cc1ccc(CC2CON=C(c3cc(C)nnc3Oc3cccc(C4CC4)c3F)N2)c(C)c1 (racemic) [Compound I-052, rac-3-[3-(3-cyclopropyl-2-fluorophenoxy)-6-methylpyridazin-4-yl]-5-[(2,4-dimethylphenyl)methyl]-5,6-dihydro-4H-1,2,4-oxadiazine]
inhibition of growth at 0.0008 ppm (Alternaria alternate; Alternaria, 0.0008 ppm, read-out: Efficacy %): 2%
inhibition of growth at 0.004 ppm (Alternaria alternate; Alternaria, 0.004 ppm, read-out: Efficacy %): 0%
inhibition of growth at 0.02 ppm (Alternaria alternate; Alternaria, 0.02 ppm, read-out: Efficacy %): 9%
inhibition of growth at 0.1 ppm (Alternaria alternate; Alternaria, 0.1 ppm, read-out: Efficacy %): 72%
inhibition of growth at 0.0008 ppm (Diaporthe citri; Diaporthe citri, single active, 0.0008 ppm, read-out: Efficacy): 0%
inhibition of growth at 0.004 ppm (Diaporthe citri; Diaporthe citri, single active, 0.004 ppm, read-out: Efficacy): 0%
inhibition of growth at 0.02 ppm (Diaporthe citri; Diaporthe citri, single active, 0.02 ppm, read-out: Efficacy): 100%
inhibition of growth at 0.1 ppm (Diaporthe citri; Diaporthe citri, single active, 0.1 ppm, read-out: Efficacy): 100%
inhibition of growth at 0.0008 ppm (Cercospora beticola [1]; Cercospora beticola, 0.0008 ppm alone, read-out: Efficacy %): 0%
inhibition of growth at 0.004 ppm (Cercospora beticola [1]; Cercospora beticola, 0.004 ppm alone, read-out: Efficacy %): 0%
inhibition of growth at 0.02 ppm (Cercospora beticola [1]; Cercospora beticola, 0.02 ppm alone, read-out: Efficacy %): 0%
inhibition of growth at 0.1 ppm (Cercospora beticola [1]; Cercospora beticola, 0.1 ppm alone, read-out: Efficacy %): 20%
inhibition of growth at 0.0008 ppm (Botrytis cinerea [2]; Botrytis cinerea, 0.0008 ppm, read-out: Efficacy): 0%
inhibition of growth at 0.004 ppm (Botrytis cinerea [2]; Botrytis cinerea, 0.004 ppm, read-out: Efficacy): 0%
inhibition of growth at 0.02 ppm (Botrytis cinerea [2]; Botrytis cinerea, 0.02 ppm, read-out: Efficacy): 0%
inhibition of growth at 0.1 ppm (Botrytis cinerea [2]; Botrytis cinerea, 0.1 ppm, read-out: Efficacy): 88%
inhibition of growth at 0.0008 ppm ([3]; 0.0008 ppm, read-out: Efficacy %): 2%
inhibition of growth at 0.004 ppm ([3]; 0.004 ppm, read-out: Efficacy %): 3%
inhibition of growth at 0.02 ppm ([3]; 0.02 ppm, read-out: Efficacy %): 0%
inhibition of growth at 0.1 ppm ([3]; 0.1 ppm, read-out: Efficacy %): 0%

Cn1cc(C(=O)Nc2ccc(F)cc2-c2ccc(Cl)c(Cl)c2)c(C(F)F)n1 [(2.002) bixafen, bixafen]
Efficacy % (Alternaria alternate; 0.008 ppm): 29%
Efficacy % (Alternaria alternate; 0.04 ppm): 23%
Efficacy % (Alternaria alternate; 0.2 ppm): 66%
Efficacy % (Alternaria alternate; 1.0 ppm): 46%
Efficacy % (Colletotrichum coccodes; 0.008 ppm): 33%
Efficacy % (Colletotrichum coccodes; 0.04 ppm): 45%
Efficacy % (Colletotrichum coccodes; 0.2 ppm): 0%
Efficacy % (Colletotrichum coccodes; 1 ppm): 0%
Efficacy % (Colletotrichum coccodes; single active compound at 0.008 ppm): 30%
Efficacy % [4]: 44%
Efficacy (Fusarium culmorum; 0.008 ppm alone): 2%
Efficacy (Fusarium culmorum; 0.04 ppm alone): 17%
Efficacy (Fusarium culmorum; single active compound, 0.008 ppm): 2%
Efficacy (Fusarium culmorum; single active compound, 0.04 ppm): 7%
Efficacy (Fusarium culmorum; single active compound, 0.2 ppm): 11%
Efficacy (Fusarium culmorum; single active compound, 1 ppm): 18%
Efficacy (Diaporthe citri; 0.2 ppm): 0% and 5%
Efficacy (Diaporthe citri; 1.0 ppm): 0% and 5%
Efficacy % (Cercospora beticola [1]; 0.2 ppm): 0%
Efficacy % (Cercospora beticola [1]; 1.0 ppm): 0%
Efficacy (Botrytis cinerea [2]; 0.04 ppm): 22%
Efficacy (Botrytis cinerea [2]; 0.2 ppm): 63%
Efficacy (Botrytis cinerea [2]; 1.0 ppm): 67%
Efficacy % (Cercospora beticola [5]; 1 ppm): 0%
Efficacy % (Cercospora beticola [5]; single compound, 0.2 ppm): 14%
Efficacy % (Cercospora beticola [5]; single compound, 1 ppm): 20%
Efficacy % (Botrytis cinerea [6]; 0.008 ppm): 6%
Efficacy % (Botrytis cinerea [6]; 0.2 ppm): 0%
Efficacy % (Botrytis cinerea [6]; 1 ppm): 66%
Efficacy (Cordana musae [7]; 0.008 ppm): 17%
Efficacy (Cordana musae [7]; 0.04 ppm): 0%
Efficacy (Cordana musae [7]; 0.2 ppm): 0%
Efficacy (Cordana musae [7]; 1 ppm): 2%
Efficacy % (Cordana musae [7]; 0.008 ppm): 0%
Efficacy % (Cordana musae [7]; 0.04 ppm): 0%
Efficacy % (Cordana musae [7]; 0.2 ppm): 0%
Efficacy (Alternaria alternata; 0.008 ppm): 13% and 23%
Efficacy (Alternaria alternata; 0.04 ppm): 67%
Efficacy (Alternaria alternata; 1 ppm): 59% and 85%
Efficacy % ([8]; single active at 0.008 ppm): 6% and 0%
Efficacy % ([8]; single active at 0.04 ppm): 0%
Efficacy % ([8]; single active at 0.2 ppm): 0%
Efficacy % ([3]; 0.008 ppm): 0%
Efficacy % ([3]; 0.04 ppm): 0%
Efficacy % ([3]; 0.2 ppm): 100%
Efficacy % ([3]; 1.0 ppm): 100%
Efficacy % (Cordana musae [9]; 0.008 ppm): 0% and 8%
Efficacy % (Cordana musae [9]; 0.04 ppm): 2% and 0%
Efficacy % (Cordana musae [9]; 0.2 ppm): 0%
Efficacy % (Cordana musae [9]; 1.0 ppm): 0%

Cc1ccc(C[C@H]2CON=C(c3cc(C)nnc3Oc3cccc(C4CC4)c3F)N2)c(C)c1 [Compound I-130, (5S)-3-[3-(3-cyclopropyl-2-fluorophenoxy)-6-methylpyridazin-4-yl]-5-(2,4-dimethylbenzyl)-5,6-dihydro-4H-1,2,4-oxadiazine]
inhibition of growth at 0.008 ppm (Colletotrichum coccodes; Colletotrichum coccodes, applied alone, 0.008 ppm, read-out: Efficacy %): 94%
inhibition of growth at 0.04 ppm (Colletotrichum coccodes; Colletotrichum coccodes, applied alone, 0.04 ppm, read-out: Efficacy %): 100%
inhibition of growth at 0.2 ppm (Colletotrichum coccodes; Colletotrichum coccodes, applied alone, 0.2 ppm, read-out: Efficacy %): 100%
inhibition of growth at 1 ppm (Colletotrichum coccodes; Colletotrichum coccodes, applied alone, 1 ppm, read-out: Efficacy %): 100%
inhibition of growth at 0.008 ppm (Botrytis cinerea [6]; Botrytis cinerea, 0.008 ppm alone, read-out: Efficacy %): 96%
inhibition of growth at 0.04 ppm (Botrytis cinerea [6]; Botrytis cinerea, 0.04 ppm alone, read-out: Efficacy %): 100%
inhibition of growth at 0.2 ppm (Botrytis cinerea [6]; Botrytis cinerea, 0.2 ppm alone, read-out: Efficacy %): 100%
inhibition of growth at 1 ppm (Botrytis cinerea [6]; Botrytis cinerea, 1 ppm alone, read-out: Efficacy %): 100%
inhibition of growth at 0.008 ppm (Alternaria alternata; Alternaria alternata, 0.008 ppm, read-out: Efficacy): 25%
inhibition of growth at 0.04 ppm (Alternaria alternata; Alternaria alternata, 0.04 ppm, read-out: Efficacy): 100%
inhibition of growth at 0.2 ppm (Alternaria alternata; Alternaria alternata, 0.2 ppm, read-out: Efficacy): 100%
inhibition of growth at 1 ppm (Alternaria alternata; Alternaria alternata, 1 ppm, read-out: Efficacy): 100%
